Values after ≈ are worked out from the molar mass of the structure shown. Values joined by “and” are separate entries in the source; they are usually repeats but may differ in a detail not shown here. Equal entries are not always repeated. Where two headings read alike, the source gives them in different places. Values belong to the molecule of their own block, whether it stands above or below them.
How the values were obtained:
[1] = test system: EpiDerm-FT (full thickness living skin model)
Method: (§1) Using an analytical method measuring HPR by HPLC, and extraction procedures that yield >95% recovery of HPR from skin homogenates, EpiDerm Enhanced Barrier Function and EpiDerm Full-thickness skin specimens were removed from the Franz cells at the scheduled time, washed and halved as described below, and then homogenized and extracted in acetonitrile supplemented with 4 μg/mL BHT, 0.1% ethanol for quantitation of HPR by HPLC. Receiver medium specimens were collected and processed for HPR analysis by HPLC as described below. Injection volumes were 100 μl for extracts of skin and receiver medium and 50 μl for calibration standards. HPR quantitation was by back calculation to a standard curve constructed from clinical grade HPR received from the NCI. […] For the second permeation study of Retin-A, PD05057 and HPR formulation C5 2005 using enhanced barrier function epidermal models, ATRA in the extracts of treated skin was quantified against an ATRA standard curve and HPR against an HPR standard curve.
(§2) 18 reconstituted EpiDerm-Full Thickness specimens (EFT-306-AFAB-PRF, lot #7024-306-AFAB-PR) and 18 reconstituted EpiDerm Skin Model Enhanced Barrier Function (EPI-606-X-AFAB-PRF, lot #5093ofs) were received in good condition from Mattek Inc via overnight courier. EpiDerm-FT was maintained in culture by specialized medium changes every other day according to the manufacturer's instructions. EpiDerm-606X was stored refrigerated until use. EpiDerm-FT medium was free of phenol red, antibiotic and anti-fungal additives (EFT-300-MM-ASY-AFAB-PRF, lot #110405aab and EPI-100-X), so as to avoid creating artifactual toxicity or proinflammatory response. The particular skin specimens were all reconstituted with normal human epidermal keratinocytes and, for EpiDerm-FT, fibroblasts as well from a single donor foreskin.
(§3) Three topical products were tested in the in vitro skin model: Retin-A 0.1% (lot #5BM258, expiry 02/07), HPR in topical formulation C5 and another HPR formulation (PD05057). These drugs were tested blindly using the following codes: “A” for Retin-A, “B” for the C5 formulation of HPR, and “D” for the HPR formulation PD05057. Receiver medium was made by mixing pre-warmed, 37° C. EFT-306 medium 5:1 with human serum albumin (Sigma A6909, lot #055K8904, then lot #095K8906) to its physiological concentration of 50 mg/mL. To prevent oxidation of HPR during the collection period, BHT was added to the receiver medium to a final concentration of 10 μg/mL from a 40 mg/mL solution of BHT-NF (Spectrum Chemicals, B1196, lot #UM0659) in Ethanol USP (NDC 11098-503-05, lot #121310). Each sterile amber Franz cells was pre-warmed to 37° C. using a circulating water bath, the bottom chamber filled completely with receiver medium (˜10 ml), and then reconstituted skin specimens were removed from the cell culture wells and spread across the orifice epidermis upward, and clamped into place with a sterile top chamber. Pre-weighed aliquots of a target dose of 1.7 mg Retin-A prepared using an analytical balance were applied to the epidermal face, disbursed and messaged with the aid of the rubber tip of 1 ml BD tuberculin syringes and the start time recorded.

[2] = Delivered dose and retinoid flux, EpiDerm-FT in Franz cells; conditions: human, 1.7 mg Retin-A cream
Method: as §1, §2, §3

[3] = test system: EpiDerm-606X (epidermal model, enhanced barrier function); conditions: human, 0.1 %
Method: as §1, §2, §3

[4] = test system: EpiDerm-FT (full thickness living skin model); assay: Delivered dose and retinoid flux, EpiDerm-FT in Franz cells; conditions: EpiDerm-FT, collection period up to 5 hours
Method: as §1, §2, §3

[5] = Clinical trial and pharmacokinetic study of oral HPR (corn oil soft gel capsules) in adult solid tumor patients; assay type: in vivo, human; conditions: for Cmax: po
Method: In an early clinical trial and pharmacokinetic study of oral HPR (corn oil, soft gel capsules) administered qdx7 to adult solid tumor patients at Wayne State University, dose escalation proceeded to 1600 mg/m^2 TID per day for seven days (˜90 capsules/day for one week).

[6] = Maximum (saturation) solubility of HPR in physiological aqueous systems with ethanol or human plasma proteins; assay type: physicochemical
Method: Although the compound is readily soluble in ethanol, this solvent solubility was not maintained when an ethanol solution of HPR was mixed into aqueous buffered systems, like physiological solutions, and in fact, even when the ethanol content of an aqueous solution of HPR was as high as 20%, the HPR solubility only reached approximately 1-2 μg/ml.
Purified human proteins were obtained from Sigma Chemical Company and dissolved in receiver medium, which was the same as the specialized medium from Mattek Inc used to maintain reconstituted skin systems or assay enhanced barrier permeability function. The individual proteins were dissolved to their respective plasma concentrations: high-density lipoprotein to 0.2 mg/mL, retinol binding protein to 0.05 mg/mL, serum albumin to 50 mg/mL (A6909, lot #055K8904), and acid α1-glycoprotein to 1 mg/mL (50646, lot #448248/1). HPR dissolved to 100 mg/mL in absolute ethanol supplemented with 4 mg/mL BHT was added to each protein solution to final theoretical concentration of 50 μg/mL and mixed by vortexing, the insoluble drug removed by centrifugation (12,000×g, 5 min, 23° C.), and the supernatant analyzed by HPLC to quantify HPR concentration.
A study of the HPR solubilizing properties of physiological concentrations of four human drug-binding plasma proteins that were expected to bind HPR under physiological conditions was conducted in receiver medium: high-density lipoprotein (HDL), retinol binding protein (RBP), albumin (ALB), and acid α-1-glycoprotein (AGP). Although certainly not the highest affinity binding, ALB solubilized more HPR per mL of receiver medium than any other plasma protein tested, driven primarily by its much higher physiological concentration than the other proteins. The solubilizing capacity of ALB was 7.5 μg HPR per ml of medium, which was 5-fold higher than that of 20 vol % ethanol. Using physiological concentrations of ALB in the 10 ml receiving medium chamber created a sink condition capable of binding 75 μg of HPR. Since the test surface area of the Franz cell was 1 cm^2 and the testing was conducted over 5 hours, this receiver medium was capable of supporting an average flux rate of 15 μg/cm^2/hour. It was concluded that this receiving medium should provide true sink conditions, considering the applied test dose of API from each formulation was just 1.7 μg/cm^2.

SCLC patients = conditions: cited from earlier work
[7] = Maximum (saturation) solubility of HPR in physiological aqueous systems with ethanol or human plasma proteins; assay type: physicochemical; conditions: 23 °C, kinetic from dmso stock, PBS pH 7.4
rodents = conditions: in vivo; cited from earlier work
human tumor cell lines = conditions: for 72 hours in vitro; cited from earlier work
[8] = cited from earlier work
[9] = test system: isolated epidermis (cadaveric); assay: Permeation into isolated cadaveric epidermis in Franz cells; assay type: in vitro ADME; conditions: receiver medium PBS with ethanol to 20 vol %
Method: Epidermal drug levels achieved by 3 hours were stable to 24 hours. The C5 formulation reached 11. μg/mg after single application. The products were tested as 0.1% strength creams. Thus, by increasing strength of the product to 0.5% and applying twice daily, it is possible to achieve target content levels in the skin. Moreover, as discussed below, the C5 formulation may be advantageous in reaching this level in epidermis alone.

[10] = rat, 24 hours after dosing; cited from earlier work
[11] = Bioavailability of oral HPR in corn oil versus IV F23 in Sprague-Dawley rats; assay type: in vivo; conditions: plasma, rat, 1200 mg/m^2 in corn oil by gavage vs 444 mg/m^2 IV F23, AUC0-30, read-out: bioavailability of orally dosed HPR
Method: The appropriate doses of injectable HPR administered IV to achieve desired blood or tissue levels can be determined by those skilled in the art, using data from related studies of oral and intravenous HPR formulations in healthy rats. For example, the present inventors administered a single, non-toxic bolus dose of 444 mg/m^2 of the F23 formulation (described herein) that was prepared at a strength of 50 mg/mL HPR, via femoral vein catheters to a group of seven dual catheterized Sprague-Dawley rats. A second group of rats received a single, non-toxic dose of 1200 mg/m^2 HPR in corn oil via oral gavage after an overnight fast which was maintained up until 2 hours after dosing. […]
Mean blood plasma concentration-time curves of measured HPR following oral and IV administration are shown in (FIG. 2). From such results, the bioavailability of the oral HPR can be calculated, as an accepted measure of the proportion of orally administered drug that entered systemic circulation. […] Bioavailability of oral HPR administered in corn oil was calculated by comparing the AUC values achieved by oral and intravenous dosing using the equation:
[formula] […] Assuming this to be similar to bioavailability of oral HPR in humans, which cannot be measured directly until human patients are actually dosed with intravenous HPR, it is possible to estimate suitable doses of HPR lipid nanoparticles for clinical use.

detection in receiver medium [1]: No ATRA was detected
retinoid in Cells (skin specimen) ([1]; human, 0.2 h, 0.1 %): 0.031 µg
retinoid in receiver Medium ([1]; human, 0.2 h, 0.1 %): 0 µg
retinoid in Cells (skin specimen) ([1]; human, 2.1 h, 0.1 %): 0.042 µg
retinoid in receiver Medium ([1]; human, 2.1 h, 0.1 %): 0 µg
retinoid in Cells (skin specimen) ([1]; human, 3 h, 0.1 %): 0.056 µg
retinoid in receiver Medium ([1]; human, 3 h, 0.1 %): 0 µg
share of applied dose in skin specimen ([1]; human, 3 h, 0.1 %): 2.9%
retinoid in Cells (skin specimen) ([1]; human, 5 h, 0.1 %): 0.035 µg
retinoid in receiver Medium ([1]; human, 5 h, 0.1 %): 0 µg
half-life at 0.1 % [2]: > 2 h
retinoid in Cells (epidermis) ([3]; 1 h): 0.209 µg
retinoid in receiver Medium ([3]; 1 h): 0 µg
retinoid in Cells (epidermis) ([3]; 2 h): 0.106 µg
retinoid in receiver Medium ([3]; 2 h): 0 µg
retinoid in Cells (epidermis) ([3]; 3 h): 0.046 µg
retinoid in receiver Medium ([3]; 3 h): 0 µg
retinoid in Cells (epidermis) ([3]; 5 h): 0.032 µg
retinoid in receiver Medium ([3]; 5 h): 0 µg
SMILES: CC1=C(/C=C/C(C)=C/C=C/C(C)=C/C(=O)O)C(C)(C)CCC1 [ATRA, all-trans-retinoic acid]

SMILES: CC1=C(/C=C/C(C)=C/C=C/C(C)=C\C(=O)O)C(C)(C)CCC1 [Formulation 13-cis-RA, 13-cis-retinoic acid]
detection in receiver medium [4]: accumulated in the receiver medium

SMILES: CC1=C(/C=C/C(C)=C/C=C/C(C)=C/C(=O)Nc2ccc(O)cc2)C(C)(C)CCC1 [HPR, N-4-hydroxyphenylretinamide]
Cmax ([5]; human, plasma, after the first dose): 1000 ng/mL to 1300 ng/mL and 2.6 µM to 3.3 µM
Cmax ([5]; human, plasma, after the last dose): 2800 ng/mL to 4600 ng/mL and 7 µM to 12 µM
half-life ([5]; human, plasma, oral HPR, patients, read-out: terminal phase half-life): 8 to 14 h
ceiling of plasma HPR level ([5]; oral, regardless of schedule or dose above 1200 mg/m^2 BID): ≤ 5 µg/mL
solubility ([6]; PBS with 20% ethanol, 23 °C, pH 7.4, aqueous with cosolvent or surfactant or cyclodextrin, kinetic from dmso stock, PBS pH 7.4, ethanol to 20% of volume, read-out: Maximum HPR Solubility): 1 to 2 µg/mL (≈ 2.55 to 5.11 µM)
increase of HPR solubility by ethanol ([6]; PBS with 20 vol % ethanol versus physiological saline): 200 fold
solubility ([6]; phosphate-buffered saline with 20 vol % ethanol, pH 7.4, aqueous with cosolvent or surfactant or cyclodextrin, kinetic from dmso stock, phosphate-buffered saline with ethanol to 20 vol %, read-out: HPR solubility): ~1.3 µg/mL (≈ 3.32 µM)
solubility ([6]; physiological saline / aqueous systems, saline or isotonic, physiological saline / aqueous systems, read-out: HPR solubility): ~0.005 µg/mL (≈ 0.0128 µM)
solubilizing capacity of ALB relative to 20 vol % ethanol ([6]; receiver medium with albumin): 5 fold
maximum concentration of HPR in blood-plasma (±SD) (SCLC patients; 14 SCLC patients, 3-4 hours after 14th oral dose (twice/day, 7 days), in µM): 7.7±4.4 04
maximum plasma concentration (SCLC patients; SCLC patients, after final of 14 oral doses of 900 mg/m^2): approximately 7.7 μM
stable disease, share of advanced SCLC patients (SCLC patients; oral HPR): 30%
solubility ([7]; human, PBS with albumin 50 g/L, pH 7.4, plasma or biological fluid, albumin 50 g/L): 7 to 8 µg/mL (≈ 17.9 to 20.4 µM)
solubility ([7]; human, PBS with high density lipoprotein 0.2 g/L, pH 7.4, plasma or biological fluid, high density lipoprotein 0.2 g/L): 1.5 to 3 µg/mL (≈ 3.83 to 7.66 µM)
solubility ([7]; human, PBS with retinol binding protein 0.05 g/L, pH 7.4, plasma or biological fluid, retinol binding protein 0.05 g/L): < 1 µg/mL
solubility ([7]; human, PBS with α1-acid-glycoprotein 1 g/L, pH 7.4, plasma or biological fluid, α1-acid-glycoprotein 1 g/L): 1 to 2 µg/mL (≈ 2.55 to 5.11 µM)
solubility ([7]; phosphate buffered saline, pH 7.4, aqueous buffer, additive none): < 1 µg/mL
maximum tolerated dose (MTD) (rodents): 651 mg/m^2
maximum tolerated dose for parenteral HPR (rodents): ~650 mg/m^2 per day
well tolerated daily dose (rodents): ~600 mg/m^2
minimum HPR exposure level required to inhibit human tumor cell lines by at least 50-90% (human tumor cell lines): 10 µM
plasma level of HPR ([8]; oral 25 mg/kg/day for 10 days, 3 hrs after last dose): 80 ng/mL
plasma level of HPR ([8]; oral 125 mg/kg/day for 10 days, 3 hrs after last dose): 260 ng/mL
plasma level of HPR ([8]; oral 800 mg/kg/day): 315 ng/mL
HPR in receiver medium [9]: not detected
accumulation in pancreas over plasma [10]: 15-20 fold
bioavailability [11]: 8%

SMILES: COc1ccc(NC(=O)\C=C(C)/C=C/C=C(C)\C=C\C2=C(C)CCCC2(C)C)cc1 [MPR]
plasma level of MPR metabolite ([8]; oral HPR 125 mg/kg/day): 60 ng/mL
plasma level of MPR metabolite ([8]; oral HPR 800 mg/kg/day): 60 ng/mL

Source: patent US8709379B2, “Liposomal nanoparticles and other formulations of fenretinide for use in therapy and drug delivery” (Scitech Development, LLC, priority 2006, dated 2014)
